What was measured:
thrombus = experiment: Inhibiting effect on thrombosis (by-pass between left juglar vein and right carotid artery, silk thread); type: in vivo, SD type male rates; details: Rattus norvegicus; 100 mg/kg oral, 5 hours before first blood circulation, rats; read-out: Thrombosis inh.: thrombosis inhibition rate
Experimental: The inhibiting effects of the samples of the invention on thrombosis were tested by the following test method.
A 0.5 ml of 50 μ/ml of the heparin physiological saline was added through the polyethylene tube before the first blood circulation. After the blood circulation for 15 minutes, the circulation was stopped in the middle of the tubing at artery side with a pinch cock.
Then, 0.2 ml of the heparin physiological saline was added to remove the blood coagulates on the tubing wall and another new polyethylene tubing filled with the heparin solution and containing a piece of new silk thread was attached between the venous and artery tubing ends.
The blood circulation was reestablished by opening the pinch cock. After 15 minutes, the wet weight of thrombus on the silk thread was similarly measured.
In the same manner, the third circulation was performed and wet weight of thrombus measured.
The amount of thrombus was given by the equation A. [formula] Each sample was suspended in an aqueous solution of sodium carboxymethyl cellulose and the oral dose of the suspension (100 mg/kg) was performed at 5 hours before the first blood circulation.
The amount of thrombus after the oral dose of the sample was calculated in the same manner as that of control circulations.
The thrombosis inhibition rate was given by the equation B. [formula]

platelet = experiment: Blood platelet aggregation inhibiting effect (collagen-induced); type: cell-based, rabbits; details: Oryctolagus cuniculus, Platelet; 10^-4 mole, collagen inducer, rabbit PRP; read-out: Blood platelet agg. inh.: percentage inhibition of platelet aggregation
Text: Male rabbits (Japan original white strain 3.3 to 3.6 kg) were anesthetized with Thiopental sodium and blood was sampled from the carotid artery.

hind paws of male rats = experiment: Anti-inflammatory effect: acute carragheenin edema method; type: in vivo; details: Rattus norvegicus; 100 mg/kg oral, carragheenin edema, male rats (Table 2); read-out: Anti-inf.: edema inhibition rate
Experimental: The edema was induced by subcutaneous injection of 1% carragheenin suspension in saline to the hind paws of male rats weighting 150 to 180 g. Each sample was orally given at the dosage of 100 mg/kg just before the inoculation of carragheenin.

male mice = experiment: Analgesic effect: painful stretchings following intraperitoneal 0.7% acetic acid; details: Mus musculus, po, read-out: Analgesic: percentage diminition of times of painful stretching
Experimental: Each sample was orally administered in the dosage of 100 mg/kg before injection of acetic acid.

With `CCCCCCOc1ccc(C(=O)Cc2ccc(Cl)cc2)cc1` [compound 62] as the molecule, how does the inhibition in vivo at 100 mg/kg (thrombus) read?
The inhibition in vivo at 100 mg/kg was 7.8%.

What about the inhibition at 100 µM (platelet) of the same molecule?
The inhibition at 100 µM was 12.3%.

And the inhibition in vivo at 100 mg/kg (hind paws of male rats)?
The inhibition in vivo at 100 mg/kg was 12.5%.

What about the inhibition in vivo at 100 mg/kg (male mice) of the same molecule?
Its inhibition in vivo at 100 mg/kg is 10.2%.

With `CCCc1ccc(C(=O)c2ccc(Cl)cc2)cc1` [compound 63] as the molecule, how does the inhibition in vivo at 100 mg/kg (thrombus) read?
The inhibition in vivo at 100 mg/kg was 6.2%.

What about the inhibition at 100 µM (platelet) of the same molecule?
The inhibition at 100 µM was 15.6%.

What about the inhibition in vivo at 100 mg/kg (hind paws of male rats) of the same molecule?
The inhibition in vivo at 100 mg/kg was 11.8%.

What about the inhibition in vivo at 100 mg/kg (male mice) of the same molecule?
The inhibition in vivo at 100 mg/kg was 8.2%.

What does the source list for `CCCCc1ccc(C(=O)c2ccc(Cl)cc2)cc1` [compound 64]?
inhibition in vivo at 100 mg/kg (thrombus): 15.9%; inhibition at 100 µM (platelet): 28.5%; inhibition in vivo at 100 mg/kg (hind paws of male rats): 21.4%; inhibition in vivo at 100 mg/kg (male mice): 6.6%

With `Cc1ccc(C(=O)c2ccccc2)cc1` [compound 65] as the molecule, how does the inhibition in vivo at 100 mg/kg (thrombus) read?
Its inhibition in vivo at 100 mg/kg is 19.2%.

What about the inhibition at 100 µM (platelet) of the same molecule?
The inhibition at 100 µM was 21%.

And the inhibition in vivo at 100 mg/kg (hind paws of male rats)?
Its inhibition in vivo at 100 mg/kg is 17.3%.

What about the inhibition in vivo at 100 mg/kg (male mice) of the same molecule?
Its inhibition in vivo at 100 mg/kg is 10.9%.

`CCc1ccc(C(=O)c2ccccc2)cc1` [compound 66] was tested. Which inhibition in vivo at 100 mg/kg (thrombus) did it give?
Its inhibition in vivo at 100 mg/kg is 20.5%.

What about the inhibition at 100 µM (platelet) of the same molecule?
The inhibition at 100 µM was 20.7%.

And the inhibition in vivo at 100 mg/kg (hind paws of male rats)?
Its inhibition in vivo at 100 mg/kg is 34.4%.

What about the inhibition in vivo at 100 mg/kg (male mice) of the same molecule?
The inhibition in vivo at 100 mg/kg was 15.7%.

What does the source list for `CC(C)Cc1ccc(C(=O)c2ccccc2)cc1` [compound 67]?
inhibition in vivo at 100 mg/kg (thrombus): 17.3%; inhibition at 100 µM (platelet): 18.5%; inhibition in vivo at 100 mg/kg (hind paws of male rats): 20%; inhibition in vivo at 100 mg/kg (male mice): 19.1%

What does the source list for `CCCCCCCCCCc1ccc(C(=O)c2ccccc2)cc1` [compound 68]?
inhibition in vivo at 100 mg/kg (thrombus): 20.3%; inhibition at 100 µM (platelet): 16.5%; inhibition in vivo at 100 mg/kg (hind paws of male rats): 17.6%; inhibition in vivo at 100 mg/kg (male mice): 5.8%

How did the inhibition in vivo at 100 mg/kg (thrombus) turn out when `CCCCCCCCCCCCc1ccc(C(=O)c2ccccc2)cc1` [compound 69] was run?
Its inhibition in vivo at 100 mg/kg is 12.7%.

And the inhibition at 100 µM (platelet)?
Its inhibition at 100 µM is 13.5%.

And the inhibition in vivo at 100 mg/kg (hind paws of male rats)?
The inhibition in vivo at 100 mg/kg was 12%.

And the inhibition in vivo at 100 mg/kg (male mice)?
Its inhibition in vivo at 100 mg/kg is 6.7%.

Which results are given for `CCCCCCCCCc1ccc(C(=O)c2ccccc2)cc1` [compound 70]?
inhibition in vivo at 100 mg/kg (thrombus): 10%; inhibition at 100 µM (platelet): 17.2%; inhibition in vivo at 100 mg/kg (hind paws of male rats): 23.2%; inhibition in vivo at 100 mg/kg (male mice): 7%

What does the source list for `CCCCCCCCCCCc1ccc(C(=O)c2ccccc2)cc1` [compound 71]?
inhibition in vivo at 100 mg/kg (thrombus): 11.4%; inhibition at 100 µM (platelet): 19.5%; inhibition in vivo at 100 mg/kg (hind paws of male rats): 20%; inhibition in vivo at 100 mg/kg (male mice): 9.2%

How did the inhibition in vivo at 100 mg/kg (thrombus) turn out when `Cc1ccc(C(=O)c2ccccc2)cc1C` [compound 72] was run?
The inhibition in vivo at 100 mg/kg was 30.2%.

And the inhibition at 100 µM (platelet)?
Its inhibition at 100 µM is 28.7%.

What about the inhibition in vivo at 100 mg/kg (hind paws of male rats) of the same molecule?
The inhibition in vivo at 100 mg/kg was 29.9%.

And the inhibition in vivo at 100 mg/kg (male mice)?
Its inhibition in vivo at 100 mg/kg is 23.4%.

With `COc1ccc(C(=O)c2ccccc2)c(OC)c1` [compound 74] as the molecule, how does the inhibition in vivo at 100 mg/kg (thrombus) read?
The inhibition in vivo at 100 mg/kg was 28.9%.

What about the inhibition at 100 µM (platelet) of the same molecule?
The inhibition at 100 µM was 18.5%.

And the inhibition in vivo at 100 mg/kg (hind paws of male rats)?
The inhibition in vivo at 100 mg/kg was 30.2%.

What about the inhibition in vivo at 100 mg/kg (male mice) of the same molecule?
The inhibition in vivo at 100 mg/kg was 24.2%.

With `COc1ccc(OC)c(C(=O)c2ccccc2)c1` [compound 75] as the molecule, how does the inhibition in vivo at 100 mg/kg (thrombus) read?
Its inhibition in vivo at 100 mg/kg is 29.2%.

And the inhibition at 100 µM (platelet)?
Its inhibition at 100 µM is 30.7%.

And the inhibition in vivo at 100 mg/kg (hind paws of male rats)?
The inhibition in vivo at 100 mg/kg was 29.5%.

And the inhibition in vivo at 100 mg/kg (male mice)?
Its inhibition in vivo at 100 mg/kg is 22%.

Which results are given for `COc1cc(OC)c(C(=O)c2ccccc2)c(OC)c1` [compound 76]?
inhibition in vivo at 100 mg/kg (thrombus): 18.4%; inhibition at 100 µM (platelet): 16.2%; inhibition in vivo at 100 mg/kg (hind paws of male rats): 15.7%; inhibition in vivo at 100 mg/kg (male mice): 13.9%

With `CCCCc1ccc(CCCC)c(C(=O)c2ccccc2)c1` [compound 77] as the molecule, how does the inhibition in vivo at 100 mg/kg (thrombus) read?
Its inhibition in vivo at 100 mg/kg is 17.5%.

And the inhibition at 100 µM (platelet)?
The inhibition at 100 µM was 25.1%.

What about the inhibition in vivo at 100 mg/kg (hind paws of male rats) of the same molecule?
The inhibition in vivo at 100 mg/kg was 13.2%.

And the inhibition in vivo at 100 mg/kg (male mice)?
Its inhibition in vivo at 100 mg/kg is 10.8%.

With `Cc1cc(C)c(C)c(C(=O)c2ccccc2)c1C` [compound 78] as the molecule, how does the inhibition in vivo at 100 mg/kg (thrombus) read?
Its inhibition in vivo at 100 mg/kg is 20.2%.

And the inhibition at 100 µM (platelet)?
Its inhibition at 100 µM is 19.9%.

And the inhibition in vivo at 100 mg/kg (hind paws of male rats)?
The inhibition in vivo at 100 mg/kg was 12.5%.

And the inhibition in vivo at 100 mg/kg (male mice)?
Its inhibition in vivo at 100 mg/kg is 5.4%.

Which results are given for `Cc1cc(C)c(C(=O)c2ccccc2)c(C)c1C` [compound 79]?
inhibition in vivo at 100 mg/kg (thrombus): 31.5%; inhibition at 100 µM (platelet): 26.8%; inhibition in vivo at 100 mg/kg (hind paws of male rats): 33.2%; inhibition in vivo at 100 mg/kg (male mice): 20.8%

With `CCc1ccc(CC)c(C(=O)c2ccccc2)c1` [compound 80] as the molecule, how does the inhibition in vivo at 100 mg/kg (thrombus) read?
The inhibition in vivo at 100 mg/kg was 28.5%.

What about the inhibition at 100 µM (platelet) of the same molecule?
The inhibition at 100 µM was 30.3%.

What about the inhibition in vivo at 100 mg/kg (hind paws of male rats) of the same molecule?
The inhibition in vivo at 100 mg/kg was 31.9%.

And the inhibition in vivo at 100 mg/kg (male mice)?
The inhibition in vivo at 100 mg/kg was 16.2%.

Which results are given for `CCOc1ccc(C(=O)c2ccccc2)cc1` [compound 81]?
inhibition in vivo at 100 mg/kg (thrombus): 20.3%; inhibition at 100 µM (platelet): 18.3%; inhibition in vivo at 100 mg/kg (hind paws of male rats): 15.3%; inhibition in vivo at 100 mg/kg (male mice): 17.6%

What does the source list for `C=Cc1ccc(C(=O)c2ccccc2)cc1` [compound 82]?
inhibition in vivo at 100 mg/kg (thrombus): 30.1%; inhibition at 100 µM (platelet): 20.5%; inhibition in vivo at 100 mg/kg (hind paws of male rats): 23.8%; inhibition in vivo at 100 mg/kg (male mice): 13.5%

Which results are given for `Cc1ccc(C(=O)c2ccc(C)cc2)cc1` [compound 83]?
inhibition in vivo at 100 mg/kg (thrombus): 19.3%; inhibition at 100 µM (platelet): 27.6%; inhibition in vivo at 100 mg/kg (hind paws of male rats): 20%; inhibition in vivo at 100 mg/kg (male mice): 12.1%

Source: patent publication US4145444A, “Anti-inflammatory agent of benzoyl derivative” (priority 1977, dated 1979)
